d = 2'-deoxy (DNA); m = 2'-O-methyl
Tests used:
[1] = tested on: human HDAC-4 protein; experiment: Western blot of HDAC-4 protein expression; type: cell-based; details: A549 cells, 48 hours
Protocol: Human cancer A549 cells were treated with AS1, AS2 or MM2 oligos for 48 hours. Whole cell lysates were analyzed by Western blotting using antibodies specific against human HDAC-4.
(§1) OSDN treatment conditions were as previously described.
(§2) Cells were lysed in buffer containing 1% Triton X-100, 0.5% sodium deoxycholate, 5 mM EDTA, 25 mM Tris-HCl, pH 7.5, plus protease inhibitors. Total protein was quantified by the protein assay reagent from Bio-Rad (Hercules, Calif.). 100 ug of total protein was analyzed by SDS-PAGE. Next, total protein was transferred onto a PVDF membrane and probed with various HDAC-specific primary antibodies. Rabbit anti-HDAC-1 (H-51), anti-HDAC-2 (H-54) antibodies (Santa Cruz Biotechnologies, Santa Cruz, Calif.) were used at 1:500 dilution. Rabbit anti-HDAC-3 antibody (Sigma, St. Louis, Mo.) was used at a dilution of 1:1000. Anti-HDAC-4 antibody was prepared as previously described (Wang, S. H. et al., (1999) Mol. Cell. Biol. 19:7816-27), and was used at a dilution of 1:1000. Anti-HDAC-6 antibody was raised by immunizing rabbits with a GST fusion protein containing a fragment of HDAC-6 protein (amino acid #990 to #1216, GenBank Accession No. AAD29048). Rabbit antiserum was tested and found only to react specifically to the human HDAC-6 isoform. HDAC-6 antiserum was used at 1:500 dilution in Western blots to detect HDAC-6 in total cell lysates. […]

[2] = tested on: Human A549 cells; experiment: cDNA array analysis of gene transcription; type: cell-based; details: 50 nM, two days, vs HDAC-4 mismatch oligo (MM2)
Protocol: (§3) Briefly, human A549 and/or T24 human bladder carcinoma cells were seeded in 10 cm tissue culture dishes one day prior to oligonucleotide treatment. The cell lines were obtained from the American Type Culture Collection (ATCC) (Manassas, Va.) and were grown under the recommended culture conditions. Before the addition of the oligonucleotides, cells were washed with PBS (phosphate buffered saline). Next, lipofectin transfection reagent (GIBCO BRL Mississauga, Ontario, CA), at a concentration of 6.25 μg/ml, was added to serum free OPTIMEM medium (GIBCO BRL, Rockville, Md.), which was then added to the cells. The oligonucleotides to be screened were then added directly to the cells (i.e., one oligonucleotide per plate of cells). Mismatched oligonucleotides were used as controls. The same concentration of oligonucleotide (e.g., 50 nM) was used per plate of cells for each oligonucleotide tested.

[3] = tested on: human HDAC-4 mRNA; experiment: Northern blot analysis of HDAC-4 RNA expression; type: cell-based; details: A549 cells, escalating doses, 24 hours
Protocol: Human cancer A549 cells were treated with escalating doses of AS1, AS2 or MM2 oligos for 24 hours. Total RNAs were harvested for Northern analysis.
Seventeen phosphorothioate ODNs containing sequences complementary to the 5′ or 3′ UTR of the human HDAC-4 gene (GenBank Accession No. AB006626) were screened as above. […] HDAC-4 MM oligo was created as a control; compared to the antisense oligo, it contains a 6-base mismatch.
as §3
Cells were harvested, and total RNAs were analyzed by Northern blot analysis. […]

[4] = tested on: T24 human bladder cancer cells; experiment: inhibition of HDAC activity in whole cells (acetylated histone H-4 Western); type: cell-based; details: acetylated histone H-4 in T24 cells, 16 hours
Protocol: T24 human bladder cancer cells (ATCC, Manassas, Va.) growing in culture were incubated with test compounds for 16 hours. Histones were extracted from the cells by standard procedures (see e.g. Yoshida et al., supra) after the culture period. Twenty μg total core histone protein was loaded onto SDS/PAGE and transferred to nitrocellulose membranes, which were then reacted with polyclonal antibody specific for acetylated histone H-4 (Upstate Biotech Inc., Lake Placid, […].). Horse Radish Peroxidase conjugated secondary antibody was used at a dilution of 1:5000 to detect primary antibody binding. The secondary antibody binding was visualized by use of the Enhanced chemiluminescence (ECL) detection kit (Amersham-Pharmacia Biotech., Inc., Piscataway, N.J.). After exposure to film, acetylated H-4 signal was quantitated by densitometry.

[5] = tested on: human HDAC-3 protein; experiment: Western blot of HDAC-3 protein expression; type: cell-based; details: A549 cells, 50 nM, 48 hours
Protocol: as §1
as §2, with “lysates. Horse Radish Peroxidase conjugated secondary antibody was used at a dilution of 1:5000 to detect primary antibody binding.” for “lysates.”

[6] = tested on: MDAmb231; experiment: apoptosis, Cell Death Detection ELISA, MDAmb231; type: cell-based, human; details: HDAC isotype-specific OSDN, 48 hour treatment
Protocol: as §3
(§4) In order to determine the effect of HDAC OSDNs on cell growth and cell death through apoptosis, A549 or T24 cells, MDAmb231 cells, and HMEC cells (ATCC, Manassas, Va.) were treated with HDAC OSDNs as previously described.
(§5) For the apoptosis study, cells were analyzed using the Cell Death Detection ELISA^Plus kit (Roche Diagnostic GmBH, Mannheim, Germany) according to the manufacturer's directions. Typically, 10,000 cells were plated in 96-well tissue culture dishes for 2 hours before harvest and lysis. Each sample was analyzed in duplicate. ELISA reading was done using a MR700 plate reader (DYNEX Technology, Ashford, Middlesex, England) at 410 nm. The reference was set at 490 nm.

[7] = tested on: HMEC; experiment: apoptosis, Cell Death Detection ELISA, HMEC; type: cell-based, human; details: HDAC isotype-specific OSDN, 48 hour treatment
Protocol: as §3, §4, §5

[8] = tested on: T24; experiment: apoptosis, Cell Death Detection ELISA, T24; type: cell-based, human; details: HDAC isotype-specific OSDN, 48 hour treatment
Protocol: as §3, §4, §5

[9] = tested on: human HDAC-3 mRNA; experiment: Northern blot analysis of HDAC-3 RNA expression; type: cell-based; details: T24 cells, 100 nM, 24 hours
Protocol: Twenty-one phosphorothioate ODNs containing sequences complementary to the 5′ or 3′ UTR of the human HDAC-3 gene (GenBank Accession No. AF039703) were screened as above. […] HDAC-3 MM oligo was created as a control; compared to the antisense oligo, it contains a a 6-base mismatch.
as §3
(§6) Cells were harvested, and total RNAs were analyzed by Northern blot analysis. Briefly, total RNA was extracted using RNeasy miniprep columns (QIAGEN). […]

[10] = tested on: A549; experiment: apoptosis, Cell Death Detection ELISA, A549; type: cell-based, human; details: HDAC isotype-specific OSDN, 48 hour treatment
Protocol: as §3, §4, §5

[11] = tested on: human cancer cells; experiment: cell growth analysis and apoptosis, cancer cells; type: cell-based; details: various human cancer cells, 50 nM
Protocol: as §4, §5
Cells were harvested and cell numbers counted by trypan blue exclusion using a hemocytometer. Percentage of inhibition was calculated as (100-AS cell numbers/control cell numbers)%.

[12] = tested on: human HDAC-2 RNA; experiment: Northern blot analysis of HDAC-2 RNA expression; type: cell-based; details: T24 cells, 100 nM, 24 hours
Protocol: Twenty-four phosphorothioate ODNs containing sequences complementary to the 5′ or 3′ UTR of the human HDAC-2 gene (GenBank Accession No. U31814) were screened as above. […] HDAC-2 MM was created as a control; compared to the antisense oligo, it contains a 7-base mismatch.
as §3, §6

[13] = tested on: human HDAC-2 protein; experiment: Western blot of HDAC-2 protein expression; type: cell-based; details: A549 cells, 50 nM, 48 hours
Protocol: as §1
as §2, with “lysates. Horse Radish Peroxidase conjugated secondary antibody was used at a dilution of 1:5000 to detect primary antibody binding.” for “lysates.”

[14] = tested on: human HDAC-6 protein; experiment: Western blot of HDAC-6 protein expression; type: cell-based; details: A549 cells, 50 nM, 48 hours
Protocol: as §1
as §2, with “lysates. Horse Radish Peroxidase conjugated secondary antibody was used at a dilution of 1:5000 to detect primary antibody binding.” for “lysates.”

[15] = tested on: human HDAC-6 RNA; experiment: Northern blot analysis of HDAC-6 RNA expression; type: cell-based; details: T24 cells, 100 nM, 24 hours
Protocol: Thirteen phosphorothloate ODNs containing sequences complementary to the 5′ or 3′ untranslated regions of the human HDAC-6 gene (GenBank Accession No. AJ011972) were screened as above. […] HDAC-6 MM oligo was created as a control; compared to the antisense oligo, it contains a 7-base mismatch.
as §3, §6

## 5-GCTGCCTGCCGTGCCCACCC-3′ (sugars from the 5' end m4 d12 m4, all phosphorothioate, methylation of C and T or U not given here) [HDAC-4 AS1, antisense oligo, human HDAC4 5′-UTR]
[1]
  expression of HDAC-4 protein: inbibit HDAC-4 expression at protein level
[2]
  fold change CDK4: −3 fold
  fold change Egr-1: 3 fold
  fold change GADD45: 3 fold
  fold change GADD153: 6 fold
  fold change IL-15: 4 fold
  fold change IRF: 2 fold
  fold change Notch-4: −3 fold
  fold change PLK: −4 fold
  fold change basic FGF: 2 fold
  fold change cyclin A2: −3 fold
  fold change cyclin B1: −3 fold
  fold change p21: 4 fold
  fold change topo II α: −5 fold
[3]
  HDAC-4 expression at RNA level: inbibit HDAC-4 expression at RNA level in a dose-dependent manner

## CC(/C=C/C(=O)Nc1ccccc1N)=C\C(C)C(=O)c1ccc(N(C)C)cc1 (stereo not drawn) [MG 24 29]
[4]
  4-Ac: 1 µM

## Nc1ccccc1NC(=O)CCCCCCC(=O)c1ccc(-c2ccccc2)cc1 [MG 36 50]
[4]
  4-Ac: 10 µM

## 5′-CGCTTTCCTTGTCATTGACA-3′ (sugars from the 5' end m4 d12 m4, all phosphorothioate, methylation of C and T or U not given here) [HDAC-3, antisense oligo, human HDAC3 3′-UTR]
[5]
  expression of HDAC-3 protein: specifically inhibits the expression of the respective HDAC isotype protein
[6]
  Apoptosis MDAmb231: − (“−”: < = 2x fold over non-specific background)
[7]
  Apoptosis HMEC: − (“−”: < = 2x fold over non-specific background)
[8]
  Apoptosis T24: − (“−”: < = 2x fold over non-specific background)
[9]
  HDAC-3 RNA expression (antisense activity): antisense activity to human HDAC-3
[10]
  Apoptosis A549: − (“−”: < = 2x fold over non-specific background)
[11]
  effect on cancer cell growth and apoptosis: no effect on cancer cell growth or apoptosis

## Cc1ccc(S(=O)(=O)Nc2ccc(/C=C/C(=O)Nc3ccccc3N)cc2)cc1 [MG 37 63]
[4]
  4-Ac: 5 µM

## 5′-GCTGAGCTGTTCTGATTTGG-3′ (chemistry not given here) [HDAC-2, antisense oligo, human HDAC2 3′-UTR]
[6]
  Apoptosis MDAmb231: − (“−”: < = 2x fold over non-specific background)
[7]
  Apoptosis HMEC: − (“−”: < = 2x fold over non-specific background)
[8]
  Apoptosis T24: − (“−”: < = 2x fold over non-specific background)
[10]
  Apoptosis A549: − (“−”: < = 2x fold over non-specific background)
[11]
  effect on cancer cell growth and apoptosis: minimal effect on cancer cell growth inhibition
[12]
  HDAC-2 RNA expression (antisense activity): antisense activity to human HDAC-2
[13]
  expression of HDAC-2 protein: specifically inhibits the expression of the respective HDAC isotype protein

## 5′-TACAGTCCATGCAACCTCCA-3′ (sugars from the 5' end m4 d12 m4, all phosphorothioate, methylation of C and T or U not given here) [HDAC4 AS2, antisense oligo, human HDAC4 3′-UTR]
[1]
  expression of HDAC-4 protein: inbibit HDAC-4 expression at protein level
[3]
  HDAC-4 expression at RNA level: inbibit HDAC-4 expression at RNA level in a dose-dependent manner

## 5′-CAGGCTGGAATGAGCTACAG-3′ (sugars from the 5' end m4 d12 m4, all phosphorothioate, methylation of C not given here) [HDAC-6, antisense oligo, human HDAC6 3′-UTR]
[14]
  expression of HDAC-6 protein: specifically inhibits the expression of the respective HDAC isotype protein
[15]
  HDAC-6 RNA expression (antisense activity): antisense activity to human HDAC-6
[6]
  Apoptosis MDAmb231: − (“−”: < = 2x fold over non-specific background)
[7]
  Apoptosis HMEC: − (“−”: < = 2x fold over non-specific background)
[8]
  Apoptosis T24: − (“−”: < = 2x fold over non-specific background)
[10]
  Apoptosis A549: − (“−”: < = 2x fold over non-specific background)
[11]
  effect on cancer cell growth and apoptosis: no effect on cancer cell growth or apoptosis

## Nc1ccccc1NC(=O)CCCCCCC(=O)c1ccc(-c2ccccc2)nc1 [MG 38 69]
[4]
  4-Ac: 5 µM

Reference: patent publication US20030152557A1, “Methods for inhibiting histone deacetylase-4” (priority 2001, published 2003)
